The nature of test [1]: Antioxidant activity by DPPH method. Conditions: DPPH radical scavenging, 517 nm; ± SEM. As to the method: This method opted for evaluation of free radical scavenging activity of DPPH was based on modified procedure described by […] et al.. The tested compounds were prepared in methanolic solution and reacted with methanolic solution of DPPH at 37 °C. The reaction mixture was prepared in 96-well plate by adding 50 μL of sample, 50 μl of methanol and 50 μl of DPPH solution prepared in 0.1 mM methanol. The mechanism of action of DPPH assay was based on the fact that DPPH radical get reduced during its reaction with an antioxidant compound and results in changes of color (from deep violet to light yellow). […] The mixture of methanol (5.0 ml) and tested compounds (0.2 ml) serve as blank. Ascorbic acid served as positive control.
(The DPPH test is a chemical assay of radical scavenging.)

Test [2] is described as follows: Hydrogen peroxide scavenging (H2O2) assay. Conditions: 230 nm, pH 7.4, ± SEM, read-out: IC50 (µM) ± SEM, H2O2 method. How it is done:
The solution of H2O2 (100 mM) was prepared via adding up different concentrations of synthesized derivatives ranging from 5 to 80 μg/ml to H2O2 solution (2 ml), prepared in 20 mM phosphate buffer of pH 7.4. Finally, the absorbance of H2O2 was measured at 230 nm after incubating for 10 min next to a blank reading of phosphate buffer without H2O2. For every measurement, a fresh reading of blank was taken to carry out background correction. For control sample containing H2O2 was scanned for absorbance at 230 nm. Results calculated as percentage of hydrogen peroxide inhibition was estimated by the formula [(Ab–At)/[…]] × 100, where Ab is the absorbance of the control and At is the absorbance of compounds/standard taken as L-ascorbic acid (5–80 μg/ml) are shown in Table 5.

A further test relates to T1, xanthine oxidase.
T1 construct: purchased Sigma (Sigma-Aldrich) MAK078
Description: Enzyme kinetic analysis for XO-inhibitory activity (Michaelis-Menten, Lineweaver-Burk). The class given is biochemical, human. As to the method: Firstly Michaelis–Menten curve was plotted for the enzyme activity at different concentrations of RU3a3 against different concentration of substrate (xanthine) Fig. 11.
Then double reciprocal plot (Lineweaver–Burk) analysis was done in the presence (0.25, 0.5, and 1.0 µM) and absence of RU3a3 from in vitro data generated during the oxidation of xanthine in presence of xanthine oxidase (Fig. 12). The x- and y axis intercepts of the Lineweaver–Burk plot were utilized to calculate Km and Vmax values of RU3a3 at different concentrations (Table 4).

T1 sequence (P47989 whole entry): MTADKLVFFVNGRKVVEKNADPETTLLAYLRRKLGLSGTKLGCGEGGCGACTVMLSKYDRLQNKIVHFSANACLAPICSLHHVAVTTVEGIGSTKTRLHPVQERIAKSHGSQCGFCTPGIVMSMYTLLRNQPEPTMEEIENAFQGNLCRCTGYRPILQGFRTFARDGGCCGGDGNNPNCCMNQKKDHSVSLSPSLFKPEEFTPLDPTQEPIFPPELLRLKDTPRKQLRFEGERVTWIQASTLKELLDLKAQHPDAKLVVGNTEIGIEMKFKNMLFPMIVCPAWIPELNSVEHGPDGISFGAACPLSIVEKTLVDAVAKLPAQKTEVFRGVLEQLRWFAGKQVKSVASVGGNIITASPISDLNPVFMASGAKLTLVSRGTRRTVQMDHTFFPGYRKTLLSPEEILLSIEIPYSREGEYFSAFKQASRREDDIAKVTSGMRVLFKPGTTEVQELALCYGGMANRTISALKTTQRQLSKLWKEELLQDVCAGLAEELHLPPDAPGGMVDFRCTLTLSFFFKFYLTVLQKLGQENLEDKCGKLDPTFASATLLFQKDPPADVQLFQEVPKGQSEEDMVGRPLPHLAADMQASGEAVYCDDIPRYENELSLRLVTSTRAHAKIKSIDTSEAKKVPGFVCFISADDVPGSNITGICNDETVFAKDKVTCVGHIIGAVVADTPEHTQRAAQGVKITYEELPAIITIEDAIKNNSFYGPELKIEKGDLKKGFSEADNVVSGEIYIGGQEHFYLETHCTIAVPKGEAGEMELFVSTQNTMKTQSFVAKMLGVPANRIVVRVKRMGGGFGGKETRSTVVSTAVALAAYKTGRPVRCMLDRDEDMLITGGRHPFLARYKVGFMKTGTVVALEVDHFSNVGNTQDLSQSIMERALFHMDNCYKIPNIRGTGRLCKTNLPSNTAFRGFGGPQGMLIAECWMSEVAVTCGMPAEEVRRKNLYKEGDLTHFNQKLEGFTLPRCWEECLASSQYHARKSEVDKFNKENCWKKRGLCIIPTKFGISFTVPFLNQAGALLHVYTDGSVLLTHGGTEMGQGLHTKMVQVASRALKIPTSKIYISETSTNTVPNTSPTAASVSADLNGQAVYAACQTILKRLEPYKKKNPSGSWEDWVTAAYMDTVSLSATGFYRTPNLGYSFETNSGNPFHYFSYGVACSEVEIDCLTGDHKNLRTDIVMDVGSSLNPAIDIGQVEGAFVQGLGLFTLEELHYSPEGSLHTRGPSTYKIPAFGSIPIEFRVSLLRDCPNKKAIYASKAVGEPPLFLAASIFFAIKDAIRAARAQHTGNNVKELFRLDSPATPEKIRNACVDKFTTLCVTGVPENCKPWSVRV

Consider `CC1OC(OCC2OC(Oc3c(-c4ccc(O)c(O)c4)oc4cc(O)cc(O)c4c3=NNC(N)=S)C(O)C(O)C2O)C(O)C(O)C1O` (centres unmarked) [RU3a1], for which the concentration for half-maximal inhibition (IC50) in test [1] was 5.02 ± 0.1 µM; in test [2], 9.13 ± 0.35 µM.

For `CC1OC(OCC2OC(Oc3c(-c4ccc(O)c(O)c4)oc4cc(O)cc(O)c4c3=NNC(=S)Nc3ccccc3)C(O)C(O)C2O)C(O)C(O)C1O` (centres unmarked) [RU3a2], the figures for the IC50 in test [1] and in test [2] were 8.728 ± 0.02 µM and 4.146 ± 0.01 µM, respectively.

For `CC1OC(OCC2OC(Oc3c(-c4ccc(O)c(O)c4)oc4cc(O)cc(O)c4c3=NNc3ccccc3)C(O)C(O)C2O)C(O)C(O)C1O` (centres unmarked) [RU3a3], the IC50 stood at 11.688 ± 0.01 µM in test [1] and 6.56 ± 0.1 µM in test [2]. Moreover, the “Vmax of xanthine oxidase” value in the test with xanthine oxidase (Conc. of RU3a3 0.25 µM) amounted to 114.4 µmol/min; with xanthine oxidase (Conc. of RU3a3 0.5 µM), 108.2 µmol/min; in the test with xanthine oxidase (Conc. of RU3a3 1.0 µM), 98.7 µmol/min. Besides, the “Manner of xanthine oxidase inhibition” value in the test with xanthine oxidase (Lineweaver-Burk plot) is “competitive manner”.

`CC1OC(OCC2OC(Oc3c(-c4ccc(O)c(O)c4)oc4cc(O)cc(O)c4c3=Nc3ccc([N+](=O)[O-])cc3Cl)C(O)C(O)C2O)C(O)C(O)C1O` (centres unmarked) [RU4b1]: the IC50 in test [1] stood at 2.65 ± 0.09 µM; in test [2], 9.86 ± 0.25 µM.

As to `CC1OC(OCC2OC(Oc3c(-c4ccc(O)c(O)c4)oc4cc(O)cc(O)c4c3=Nc3ccc([N+](=O)[O-])cc3)C(O)C(O)C2O)C(O)C(O)C1O` (centres unmarked) [RU4b2], the IC50 in test [1] turned out to be 8.48 ± 0.25 µM; in test [2] it was 4.378 ± 0.01 µM.

For the compound `COc1cc(OC)c2c(=O)c(OC(=O)c3cccnc3)c(-c3ccc(OC)c(OC)c3)oc2c1` [RU7c1], the IC50 in test [1] worked out at 6.06 ± 0.13 µM; in test [2], 14.7 ± 0.6 µM.

In the case of `COc1cc(OC)c2c(=O)c(OC(=O)c3ccccc3O)c(-c3ccc(OC)c(OC)c3)oc2c1` [RU7c2], the values for the IC50 in test [1] and in test [2] were 14.669 ± 0.01 µM and 12.1 ± 0.2 µM, respectively.

Take `COc1cc(OC)c2c(=O)c(OC(=O)/C=C/c3ccccc3)c(-c3ccc(OC)c(OC)c3)oc2c1` [RU7c3]: the half-maximal inhibitory concentration (IC50) in test [1] was 7.69 ± 0.42 µM; in test [2] it was 17.9 ± 0.41 µM.

A word on the IC50: it is the midpoint of a concentration-inhibition curve.

For the origin of these results see article PMC6661775 (BMC Chemistry, 2019).
